Results: article PMC6437461, “Histone deacetylase inhibitory and cytotoxic activities of the constituents from the roots of three species of Ferula” (Iranian Journal of Basic Medical Sciences, 2019)
Read-outs that look alike come from different tables or passages of the source.

What was measured:
A2780 cells = experiment: AlamarBlue cytotoxicity assay, A2780; assay type: cell-based; conditions: Homo sapiens, 48 hr treatment
Protocol: (§1) Cervical (HeLa), ovarian (A2780), and lung (A549) cancer cells, obtained from Biotechnology Laboratory stocks, Biotechnology Research Center (Mashhad, Iran) and colon (HCT116) obtained from National Cell Bank of Iran (NCBI), Pasteur Institute of Iran, Tehran (Iran).
(§2) In vitro cytotoxicity tests were performed using a nonfluorescent substrate, AlamarBlue® (Paisely, UK) cell viability assay as described with some modifications (16). […] After counting, the cells were seeded in 96-well microplates (1 × 10^4 cells/100 µl in each well) and cultivated for 24 hr before addition of test compounds. Triplicate plates for three wells of each concentration were seeded. […] Thereafter, 10 μl of AlamarBlue® reagent was added and incubated for another 4 hr. Then, absorbance was measured at 600 nm using an ELISA microplate reader (Epoch; USA). IC50 values were calculated by nonlinear regression analysis using GraphPad prism (Version 6.0) software.

A549 cells = experiment: AlamarBlue cytotoxicity assay, A549; assay type: cell-based; conditions: Homo sapiens, 48 hr treatment
Protocol: as §1, §2

pan-HDAC [1] = experiment: Whole-cell HDAC inhibition assay in HeLa cells; conditions: read-out: HDAC inhibition IC50 HeLa, 18 hr incubation, Boc-Lys(ε-Ac)-AMC substrate
Protocol: (§3) Three wells defined as 100% initial activity and three wells defined as background and three wells for each concentration were seeded. […] The test compounds, were dissolved in dimethyl sulfoxide (final concentrations of DMSO per well was 0.1% V/V) and their concentrations adjusted to 70, 40, 20, 5, 1 μM through dilution with the growth medium. The first step of reaction was started by adding 10 µl of 3 mM Boc-Lys (ε-Ac)-AMC (Bachem, Switzerland) to each well to reach a final concentration of 0.3 mM. Then, cells were incubated with the Boc-Lys (ε-Ac)-AMC for 3 hr under cell culture conditions. […] The final volume of the solution (210 µl per well) were transferred to the black 96-well microplate with flat clear bottom. We calculated fluorescence intensity at an excitation of 360 nm and emission of 470 nm in a NOVO star microplate reader (BMGLabTech, Germany).

HCT116 cells = experiment: AlamarBlue cytotoxicity assay, HCT116; assay type: cell-based; conditions: Homo sapiens, HCT-116, 48 hr treatment
Protocol: as §1, §2

pan-HDAC [2] = experiment: Whole-cell HDAC inhibition assay in HCT116 cells; conditions: read-out: HDAC inhibition IC50 HCT116, HCT116, 18 hr incubation, Boc-Lys(ε-Ac)-AMC substrate
Protocol: as §3

HeLa cells = experiment: AlamarBlue cytotoxicity assay, HeLa; assay type: cell-based; conditions: Homo sapiens, 48 hr treatment
Protocol: as §1, §2

[3] = test system: human cancer cell lines (HeLa, HCT116, A2780 and A549); experiment: AlamarBlue cytotoxicity, summary over the four cancer cell lines; assay type: cell-based; conditions: collective range, read-out: Cytotoxic activity IC50 against cancer cells (range over cell lines and compounds)
Protocol: as §1, §2

pan-HDAC [4] = experiment: Whole-cell pan-HDAC inhibition, summary over HeLa and HCT116; conditions: read-out: pan-HDAC inhibitory activity IC50 (range over HeLa and HCT116), collective range
Protocol: as §3

Row | IC50 (pan-HDAC [1]) [µM] | IC50 (pan-HDAC [2]) [µM] | IC50 (pan-HDAC [4]) [µM] | SMILES | IC50 (A2780 cells) [µM] | IC50 (A549 cells) [µM] | IC50 (HCT116 cells) [µM] | IC50 (HeLa cells) [µM] | IC50 ([3]; Homo sapiens) [µM] | IC50 [3] [µM]
1 | 2.86 ± 1.4 | 26.44 ± 0.03 | – | CC1=CC(=O)[C@@H]2C(C)(C)[C@H](O)CC[C@@]2(C)[C@@H]1COc1ccc2ccc(=O)oc2c1 [Ligupersin A (8), Ligupersin A] | 39.5 ± 10.8 | 33.5 ± 9.58 | 68.5 ± 7.41 | 22.9 ± 6.82 | – | –
2 | 10.6 ± 0.77 | 25.91 ± 0.14 | – | C/C=C(/C)C(=O)OC/C=C\SSC(C)CC (centres unmarked) [Latisulfide C (15), Latisulfide C] | 49.4 ± 6.2 | 47.9 ± 4.73 | 47.2 ± 8.18 | 18.7 ± 8.5 | 11.6 to 49.4 | –
3 | 17.4 ± 0.5 | > 70 | – | CC1=CC(=O)C2C(C)(C)C(=O)CC[C@@]2(C)[C@@H]1COc1ccc2ccc(=O)oc2c1 (some centres unmarked) [Conferdione (9), Conferdione] | 38.8 ± 9.88 | 32.7 ± 7.96 | 50.9 ± 5.19 | 41.7 ± 11.1 | – | –
4 | > 70 | 40.4 ± 1.09 | – | C=C1CCC(=O)C(C)(C)[C@H]1CC/C(C)=C/COc1ccc2ccc(=O)oc2c1 [Farnesiferone B (5), Farnesiferone B] | 78.9 ± 6.74 | 72.5 ± 4.83 | 50.1 ± 6.29 | 71.6 ± 6.4 | – | –
5 | > 70 | > 70 | – | CCC(C)SS/C=C\CO (centres unmarked) [Latisulfide D (16), Latisulfide D] | > 100 | > 100 | > 100 | > 100 | – | –
6 | 5.02 ± 0.29 | 19.9 ± 0.69 | – | CCC(C)SS/C=C\COC(=O)/C=C/c1ccc(O)c(OC)c1 (centres unmarked) [Latisulfide E (17), Latisulfide E] | 71.3 ± 6.52 | 69.7 ± 7.71 | 57.1 ± 5.21 | 30.6 ± 14.9 | – | –

Further lines, the molecule ahead of its results:

Row | SMILES | IC50 (pan-HDAC [1]) [µM] | IC50 (pan-HDAC [2]) [µM] | IC50 (pan-HDAC [4]) [µM] | IC50 (A2780 cells) [µM] | IC50 (A549 cells) [µM] | IC50 (HCT116 cells) [µM] | IC50 (HeLa cells) [µM] | IC50 ([3]; Homo sapiens) [µM] | IC50 [3] [µM]
7 | COc1cc(C(=O)OC2C3(C)CCC(C3)C2(C)C)ccc1O (centres unmarked) [Stylosin (19), Stylosin] | > 70 | 14.93 ± 0.08 | – | 25.5 ± 5.96 | – | 42.1 ± 6.1 | 54.8 ± 7.53 | – | –
8 | CC1=CC[C@@H]2C(C)(C)[C@H](O)CC[C@@]2(C)[C@@H]1COc1ccc2ccc(=O)oc2c1 [Feselol (7), Feselol] | 10.7 ± 1.31 | 5.29 ± 0.22 | – | 20.2 ± 9.68 | 25.5 ± 5.86 | 28.4 ± 8.1 | 34.8 ± 7.94 | 11.6 to 49.4 | –
9 | CCC(C)SS/C=C/COC(=O)CC(C)(C)OC(C)=O (centres unmarked) [Persicasulfide A (2), Persicasulfide A] | 5.47 ± 0.89 | 4.41 ± 0.24 | – | 19.4 ± 7.29 | 15.3 ± 6.77 | 11.6 ± 10.5 | 11.8 ± 11.6 | 11.6 to 49.4 | –
10 | C=C(C)C(=O)OC/C=C\SSC(C)CC (centres unmarked) [Latisulfide B (14), Latisulfide B] | > 70 | > 70 | – | > 100 | > 100 | > 100 | > 100 | – | –
11 | CCC(C)SS/C=C/COC(=O)CC(C)(C)O (centres unmarked) [Persicasulfide C (3), Persicasulfide C] | > 70 | > 70 | – | > 100 | > 100 | > 100 | 64.8 ± 1.01 | – | –
12 | CCC(C)SS/C=C\COC(C)=O (centres unmarked) [Latisulfide A (13), Latisulfide A] | > 70 | > 70 | – | > 100 | > 100 | > 100 | 77.6 ± 3.43 | – | –
13 | CC1=CC(OC2OC(CO)C(O)C(O)C2O)C2C(C)(C)C(=O)CC[C@@]2(C)[C@@H]1COc1ccc2ccc(=O)oc2c1 (some centres unmarked) [Conferoside (10), Conferoside] | 35.27 ± 0.16 | 9.94 ± 1.89 | – | 36.4 ± 12.3 | 45.8 ± 6.39 | 35.3 ± 6.98 | 40 ± 7.99 | 11.6 to 49.4 | –
14 | CC(C)=CCC/C(C)=C/CC/C(C)=C/COc1ccc2ccc(=O)oc2c1 [Umbelliprenin (4), Umbelliprenin] | > 70 | > 70 | – | > 100 | > 100 | > 100 | > 100 | – | –
15 | CC1=CCC2C(C)(C)C(=O)CC[C@@]2(C)[C@@H]1COc1ccc2ccc(=O)oc2c1 (some centres unmarked) [Conferone (6), Conferone] | 1.17 ± 0.06 | 1.06 ± 0.15 | 1.06 to 1.17 | 32.4 ± 9.83 | 39.2 ± 5.23 | 31.8 ± 8.33 | 38.2 ± 7.8 | – | < 50
